# Data from patent US20140378408A1, “NUCLEOSIDE 5'-PHOSPHOROTHIOATE ANALOGUES AND USES THEREOF” (BAR-ILAN UNIVERSITY, an Israeli University, priority 2012, published 2014).
# Tests used:
# human P2Y11-R = biological target: T1, human P2Y11-R (Homo sapiens, UniProt Q96G91); test: [Ca^2+]i response of 1321N1 astrocytoma cells expressing P2Y11-R GFP; format: cell-based
# T1 construct: expressed in transfected cells; host or cells: 1321N1 astrocytoma cells
# T1 sequence (Q96G91 1-374): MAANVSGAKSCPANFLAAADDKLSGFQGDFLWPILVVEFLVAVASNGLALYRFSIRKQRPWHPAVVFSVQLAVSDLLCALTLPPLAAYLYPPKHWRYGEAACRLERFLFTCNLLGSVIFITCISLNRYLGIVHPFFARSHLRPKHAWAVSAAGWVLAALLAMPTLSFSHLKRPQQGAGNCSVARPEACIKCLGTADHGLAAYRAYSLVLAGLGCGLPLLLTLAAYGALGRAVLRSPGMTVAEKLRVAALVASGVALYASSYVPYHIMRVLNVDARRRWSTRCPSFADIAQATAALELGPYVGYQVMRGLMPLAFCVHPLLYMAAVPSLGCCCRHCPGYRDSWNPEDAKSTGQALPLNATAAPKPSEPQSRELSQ
# human NTPDase3 = biological target: T2, human NTPDase3 (Homo sapiens, UniProt O75355); test: Hydrolysis by human NTPDase3; format: in vitro ADME; design: made in house; host or cells: COS-7 cells (transfected; protein extract); conditions: 100 μM, 1 h, activity with 100 μM ATP = 100%; listed as APPCP-α-S B
# T2 sequence (O75355 1-529): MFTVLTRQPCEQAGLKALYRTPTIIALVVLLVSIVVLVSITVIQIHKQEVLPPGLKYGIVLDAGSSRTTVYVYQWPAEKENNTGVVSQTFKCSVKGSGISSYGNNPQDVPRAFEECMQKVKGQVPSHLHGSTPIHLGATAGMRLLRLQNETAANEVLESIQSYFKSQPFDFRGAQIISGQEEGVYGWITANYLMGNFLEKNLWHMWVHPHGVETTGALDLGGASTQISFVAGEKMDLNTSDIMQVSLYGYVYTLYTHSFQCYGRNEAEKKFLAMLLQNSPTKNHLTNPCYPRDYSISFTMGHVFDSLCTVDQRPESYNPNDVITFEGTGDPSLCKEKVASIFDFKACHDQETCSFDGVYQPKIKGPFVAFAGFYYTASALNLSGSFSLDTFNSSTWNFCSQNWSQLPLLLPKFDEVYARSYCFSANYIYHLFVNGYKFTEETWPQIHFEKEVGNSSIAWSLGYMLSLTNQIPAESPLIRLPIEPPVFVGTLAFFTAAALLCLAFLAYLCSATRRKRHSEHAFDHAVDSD
# human NTPDase8 [1] = biological target: T3, human NTPDase8 (Homo sapiens, UniProt Q5MY95); test: Inhibition of NTPDase8 activity; format: biochemical
# T3 construct: made in house; host or cells: COS-7 cells (transfected; protein extract)
# T3 sequence (Q5MY95 1-495): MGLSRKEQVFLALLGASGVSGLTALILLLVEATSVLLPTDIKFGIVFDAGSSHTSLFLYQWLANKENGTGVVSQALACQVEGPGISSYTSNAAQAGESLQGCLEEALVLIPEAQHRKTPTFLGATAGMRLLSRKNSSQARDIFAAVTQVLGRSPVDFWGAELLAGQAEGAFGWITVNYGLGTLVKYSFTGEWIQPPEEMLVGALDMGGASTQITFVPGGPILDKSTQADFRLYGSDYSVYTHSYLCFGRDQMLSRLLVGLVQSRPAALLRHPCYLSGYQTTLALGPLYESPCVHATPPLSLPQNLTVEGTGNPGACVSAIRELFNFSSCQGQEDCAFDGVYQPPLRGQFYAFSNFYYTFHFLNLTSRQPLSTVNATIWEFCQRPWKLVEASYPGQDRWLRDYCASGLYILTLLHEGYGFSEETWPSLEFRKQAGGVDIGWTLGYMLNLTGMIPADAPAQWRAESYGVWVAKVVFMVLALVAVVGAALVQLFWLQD
# human NTPDase8 [2] = biological target: T3, human NTPDase8; test: Hydrolysis by human NTPDase8; format: in vitro ADME; conditions: 100 μM, 1 h, activity with 100 μM ATP = 100%; listed as APPCP-α-S B
# human NTPDase2 [3] = biological target: T4, human NTPDase2 (Homo sapiens, UniProt Q9Y5L3); test: Hydrolysis by human NTPDase2; format: in vitro ADME; conditions: 100 μM, 1 h, activity with 100 μM ATP = 100%; listed as APPCP-α-S B
# T4 construct: made in house; host or cells: COS-7 cells (transfected; protein extract)
# T4 sequence (Q9Y5L3 1-495): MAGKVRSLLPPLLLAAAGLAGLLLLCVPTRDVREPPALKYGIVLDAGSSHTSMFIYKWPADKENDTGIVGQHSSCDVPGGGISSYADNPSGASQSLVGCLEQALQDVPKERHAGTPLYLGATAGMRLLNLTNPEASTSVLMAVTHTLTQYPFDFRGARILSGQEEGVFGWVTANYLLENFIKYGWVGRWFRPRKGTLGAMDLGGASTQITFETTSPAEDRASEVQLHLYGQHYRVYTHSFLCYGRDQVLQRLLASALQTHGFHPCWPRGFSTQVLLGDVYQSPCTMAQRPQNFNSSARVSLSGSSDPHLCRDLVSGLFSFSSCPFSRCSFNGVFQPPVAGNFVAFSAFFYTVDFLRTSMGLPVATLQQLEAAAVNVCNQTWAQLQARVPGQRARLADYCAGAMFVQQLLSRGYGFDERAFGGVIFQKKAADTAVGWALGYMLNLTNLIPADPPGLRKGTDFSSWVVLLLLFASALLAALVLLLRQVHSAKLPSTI
# human NTPDase1 = biological target: T5, human NTPDase1 (Homo sapiens, UniProt P49961); test: Hydrolysis by human NTPDase1; format: in vitro ADME; design: made in house; host or cells: COS-7 cells (transfected; protein extract); conditions: 100 μM, 1 h, activity with 100 μM ATP = 100%; listed as APPCP-α-S B
# T5 sequence (P49961 1-510): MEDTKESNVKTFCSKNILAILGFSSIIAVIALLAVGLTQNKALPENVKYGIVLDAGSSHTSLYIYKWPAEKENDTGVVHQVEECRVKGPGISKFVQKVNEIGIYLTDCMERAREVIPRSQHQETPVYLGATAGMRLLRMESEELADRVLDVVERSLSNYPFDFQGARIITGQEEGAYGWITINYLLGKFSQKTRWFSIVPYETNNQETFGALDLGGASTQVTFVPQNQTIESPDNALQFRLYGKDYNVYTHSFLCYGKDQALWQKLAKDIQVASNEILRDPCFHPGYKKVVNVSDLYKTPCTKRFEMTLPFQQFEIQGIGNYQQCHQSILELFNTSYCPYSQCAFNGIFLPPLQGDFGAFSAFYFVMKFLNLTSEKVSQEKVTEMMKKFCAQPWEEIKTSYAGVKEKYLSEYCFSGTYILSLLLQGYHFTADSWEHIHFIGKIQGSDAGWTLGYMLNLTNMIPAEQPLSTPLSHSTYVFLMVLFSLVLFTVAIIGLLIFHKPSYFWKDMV
# human NTPDase2 [4] = biological target: T4, human NTPDase2; test: Inhibition of NTPDase2 activity; format: biochemical
# [5] = Table 5, ATP and analogue 100 μM, 100% activity = ATP alone, listed as APPCP-α-S B
structure (smiles),measurement,setting,value
"Nc1ncnc2c1ncn2[C@@H]1O[C@H](COP(O)(=S)OP(=O)(O)CP(=O)(O)O)[C@@H](O)[C@H]1O (single isomer, unassigned; isomer b) [APPCP-α-S (isomer B), adenosine 5′-[Pα-thio]-β,γ-methylenetriphosphate]",times more potent than ATP at the P2Y11 receptor,human P2Y11-R,7 fold
same,Hydrolysis by NTPDase3,human NTPDase3,4.8 ± 0.2%
same,effect on human NTPDase8 activity,human NTPDase8 [1]; [5],0.5 ± 0.01%
same,inhibition of the hydrolysis of ATP by NTPDase8,human NTPDase8 [1]; analogue and ATP 100 μM,did not interfere
same,Hydrolysis by NTPDase8,human NTPDase8 [2],5.3 ± 0.2%
same,Hydrolysis by NTPDase2,human NTPDase2 [3],5.5 ± 0.3%
same,Hydrolysis by NTPDase1,human NTPDase1,5.4 ± 0.2%
same,effect on human NTPDase2 activity,human NTPDase2 [4]; [5],9.9 ± 0.4%
same,inhibition of the hydrolysis of ATP by NTPDase2,human NTPDase2 [4]; analogue and ATP 100 μM,did not interfere
